# In PubChem BioAssay (NCI):
# Several values for one entry are separate records, joined by “and”; a condition that tells them apart may be missing. Identical values can stand only once.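 Test compounds were applied to cells in 96-well plates for 48 hours at 5 doses. At the GI50, growth is halved. TGI is the concentration that stops growth completely.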 Where a SMILES comes first, the peptide text is derived from it. [ ]: non-standard residue; d: D form. NMeY = CN[C@@H](Cc1ccc(O)cc1)C(=O)O; dNMeF = CN[C@H](Cc1ccccc1)C(=O)O; Sar = CNCC(=O)O
# What was measured:
# Assay in all cases: growth of human tumour cells (NCI), 48 h
# A549 NSCLC = test system: A549 NSCLC
# CCRF-CEM leukemia = test system: CCRF-CEM leukemia
# HCC-2998 colon = test system: HCC-2998 colon
# IGROV1 ovarian = test system: IGROV1 ovarian
# NCI-H522 lung = test system: NCI-H522 lung
# OVCAR-3 ovarian = test system: OVCAR-3 ovarian
# PC-3 prostate = test system: PC-3 prostate
# SN12C renal = test system: SN12C renal
SMILES,GI50 (A549 NSCLC),TGI (A549 NSCLC),GI50 (CCRF-CEM leukemia) [µM],TGI (CCRF-CEM leukemia),GI50 (HCC-2998 colon) [µM],TGI (HCC-2998 colon),GI50 (IGROV1 ovarian) [µM],TGI (IGROV1 ovarian) [µM],GI50 (NCI-H522 lung),TGI (NCI-H522 lung) [µM],GI50 (OVCAR-3 ovarian) [µM],TGI (OVCAR-3 ovarian),GI50 (PC-3 prostate),TGI (PC-3 prostate),GI50 (SN12C renal) [µM],TGI (SN12C renal)
N#CSCc1c(Cl)cccc1Cl,3.31 µM,> 100 µM,0.323,> 43.8 µM,4.19,45.2 µM,2.69,7.2,2.07 µM,6.33,2.39,5.18 µM,8.73 µM,> 100 µM,4.5,> 100 µM
COc1ccc(-c2cc(-c3cn[nH]c3-c3ccccn3)ccn2)cc1,> 25 µM,> 25 µM,> 25,> 25 µM,> 25,> 25 µM,> 25,> 25,> 25 µM,> 25,> 25,> 25 µM,> 25 µM,> 25 µM,> 25,> 25 µM
C/C1=C\C/C=C(\C)[C@H]2CC(CC/C(C)=C/CC1)[C@@](C)(CO)O2,> 100 µM,> 100 µM,72.8,> 100 µM,> 100,> 100 µM,16,56.5,23.3 µM,> 100,> 100,> 100 µM,68.5 µM,> 100 µM,16.3,> 100 µM
CO/N=C(/COc1c(-c2ccccc2)oc2ccccc2c1=O)c1ccc(OC)cc1,> 100 µM,> 100 µM,60,> 100 µM,> 100,> 100 µM,> 100,> 100,53.3 µM,> 100,> 100,> 100 µM,> 100 µM,> 100 µM,76.7,> 100 µM
CC1(C)CC(=O)c2c(ccc(C(=O)C[C@H](N)CO)c2N)O1,7 µM and 7.1 µM,17.5 µM and > 33.3 µM,–,17.5 µM and > 33.3 µM,–,17.5 µM and 12 µM,3.09,17.5,2.57 µM and 4.58 µM,17.5,–,17.5 µM and > 33.3 µM,10.6 µM and 5.7 µM,17.5 µM and > 33.3 µM,–,17.5 µM and > 33.3 µM
C#C[C@@]1(O)[C@@H](CO)O[C@@H](n2ccc3c(N)ncnc32)[C@@H]1O,1.31 µM,> 100 µM,2.3,> 100 µM,1.45,3.12 µM,1.43,5.85,0.37 µM,3.82,2.96,12 µM,0.808 µM,3.54 µM,0.798,3.91 µM
CC(=O)OC1CCC2(C)C(CCC3C4CC=C(C(C)=O)C4(C)OC(=O)CC32)C1 (centres undefined),7.22 µM,23.1 µM,1.3,4.87 µM,2.21,4.06 µM,2.88,10.3,1.22 µM,2.64,1.63,3.04 µM,4.56 µM,16.7 µM,3.26,13.6 µM
CC[C@H](C)[C@@H]1NC(=O)[C@H](Cc2ccc(O)cc2)N(C)C(=O)[C@H](Cc2ccccc2)NC(=O)CN(C)C(=O)[C@@H]2CCCN2C(=O)[C@@H](Cc2ccccc2)N(C)C(=O)[C@H](CC(C)C)NC1=O (cyclo(F[NMeY]IL[dNMeF]P[Sar])),0.301 µM,4.29 µM,0.279,11.7 µM,0.39,5.01 µM,0.21,5.2,0.287 µM,3.95,0.248,3.39 µM,0.28 µM,6.21 µM,0.139,5.79 µM
C[C@H]1[C@H](C)CC[C@]2(C(=O)O)CC[C@]3(C)C(=CC[C@@H]4[C@@]5(C)CC[C@H](OC(=O)/C=C/c6ccc(O)cc6)C(C)(C)[C@@H]5CC[C@]43C)[C@H]12,2.37 µM,12.7 µM,5,> 40.4 µM,7.37,21.9 µM,8.39,45.8,9.45 µM,23,12.5,39.2 µM,6.94 µM,24.6 µM,2.15,5.65 µM
CN(C)CCNC(=O)Cn1ccc(=O)c2ccc([N+](=O)[O-])cc21,–,> 100 µM,–,> 100 µM,–,> 100 µM,–,> 100,–,> 100,–,> 100 µM,–,> 100 µM,–,> 100 µM
Nc1c(C(=O)c2cccc(CCC3(O)CCCC3)c2)cnn1-c1ccc(F)cc1,12.6 µM,> 25 µM,18.8,> 25 µM,> 25,> 25 µM,> 25,> 25,> 19.4 µM,> 25,> 18,> 25 µM,8.98 µM,> 25 µM,16.2,> 25 µM
CO[C@H]1C[C@@H]2CC[C@@H](C)[C@@](O)(O2)C(=O)C(=O)N2CCCC[C@H]2C(=O)O[C@H]([C@H](C)C[C@@H]2CC[C@@H](OP(C)(C)=O)[C@H](OC)C2)CC(=O)[C@H](C)/C=C(\C)[C@@H](O)[C@@H](OC)C(=O)[C@H](C)C[C@H](C)/C=C/C=C/C=C/1C,< 0.01 µM,20.7 µM,8.17,52.4 µM,5.02,24.7 µM,< 0.01,18.3,–,19.9,11.1,23.3 µM,< 0.0419 µM,18.8 µM,11,25.8 µM
O=c1oc2ccc(Cl)cc2c(=O)n1-c1cc(C(F)(F)F)cc(C(F)(F)F)c1,0.339 µM,13.1 µM,0.388,10.2 µM,0.346,3.77 µM,0.412,12.9,0.25 µM,2.57,0.276,10.7 µM,0.302 µM,4.49 µM,0.259,3.8 µM
O=C(O)c1ccc(NCc2nc3cc4ccccc4cc3[nH]2)cc1,–,> 100 µM,–,> 100 µM,–,> 100 µM,–,> 100,–,> 100,–,> 100 µM,–,> 100 µM,–,> 100 µM
COc1cccc(-n2ncc3c(N/N=C/c4ccc(S(C)(=O)=O)cc4)ncnc32)c1,9.24 µM,> 25 µM,> 25,> 25 µM,12.4,> 25 µM,11,> 25,6.78 µM,20.1,7.41,> 23 µM,6.63 µM,> 20.9 µM,9.88,> 25 µM
